Source: patent publication US4797489A, “Adamantyl- and fluorenyl-arylpiperazines and -arylpiperidines” (American Home Products Corp., priority 1987, dated 1989)

What was measured:
[1] = molecular target: T1, 5-HT1A serotonin receptor (Rattus norvegicus, UniProt P19327); assay: 5-HT1A receptor binding, displacement of ^3 H-8-OH DPAT
T1 construct: 44, 1685-1696 (1985); from tissue
T1 sequence (P19327 1-422): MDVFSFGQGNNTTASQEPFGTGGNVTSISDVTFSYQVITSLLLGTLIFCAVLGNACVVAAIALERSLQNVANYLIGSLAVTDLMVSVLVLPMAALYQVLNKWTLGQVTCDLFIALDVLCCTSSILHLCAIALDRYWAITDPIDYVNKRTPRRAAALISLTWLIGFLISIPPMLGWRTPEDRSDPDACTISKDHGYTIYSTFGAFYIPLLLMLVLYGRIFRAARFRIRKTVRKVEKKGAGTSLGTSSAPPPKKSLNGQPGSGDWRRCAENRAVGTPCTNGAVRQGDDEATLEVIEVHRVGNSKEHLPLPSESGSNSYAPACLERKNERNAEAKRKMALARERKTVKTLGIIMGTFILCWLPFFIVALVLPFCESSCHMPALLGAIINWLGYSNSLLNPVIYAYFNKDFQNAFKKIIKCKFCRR
Source text: The serotoninergic properties of the compounds of this invention were established by the procedure of Hall et al., J. Neurochem.

[2] = molecular target: T2, limbic D2 (dopamine) receptor (Rattus norvegicus, UniProt P61169); assay: D2 receptor affinity, inhibition of ^3 H-spiroperidol (^3 H-spirohaloperidol) binding to limbic brain tissue
T2 construct: from tissue; rat inferred

5-HT2 receptor = assay: 5-HT2 inhibition of ^3 H-spiroperidol binding (rat brain cortex homogenate)
Method: 5-HT2 inhibition of ^3 H-spiroperidol is determined in an analogous manner, employing rat brain cortex homogenate as the receptor tissue, following a modification of Fields et al., ibid; Yamamura et al., ibid; and Creese et al., Eu. J. Pharmacol. 49, 20 (1978).

[3] = Barone et al., 1986; cited from earlier work

T2 sequence (P61169 whole entry): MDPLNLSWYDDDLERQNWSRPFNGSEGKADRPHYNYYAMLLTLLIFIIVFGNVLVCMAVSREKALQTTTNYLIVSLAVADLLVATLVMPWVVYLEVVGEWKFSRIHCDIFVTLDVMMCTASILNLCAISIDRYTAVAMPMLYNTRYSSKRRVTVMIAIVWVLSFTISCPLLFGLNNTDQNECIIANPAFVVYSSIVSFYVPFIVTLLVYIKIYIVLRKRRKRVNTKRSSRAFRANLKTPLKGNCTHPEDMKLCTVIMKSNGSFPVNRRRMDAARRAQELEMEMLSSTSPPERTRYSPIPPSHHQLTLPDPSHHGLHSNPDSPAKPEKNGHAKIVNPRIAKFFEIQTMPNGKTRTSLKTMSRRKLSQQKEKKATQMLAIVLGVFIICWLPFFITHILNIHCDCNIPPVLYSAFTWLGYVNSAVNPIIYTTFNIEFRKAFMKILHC

Row | inhibition at 1 µM ([1]; ^3 H-8-OH DPAT) [%] | inhibition at 1 µM [2] [%] | Structure (SMILES) | further results
1 |  |  | O=C1CC2(CCCC2)CC(=O)N1CCCCN1CCN(c2ncccn2)CC1 [Buspirone, reference compound] | inhibition at 0.001 µM ([1]; read-out: percent inhibition (5-HT1A, ^3 H-8-OH DPAT)): 97%
2 | 80 | 67 | O=C(OCCCN1CCN(c2cccc(Cl)c2)CC1)C12CC3CC(CC(C3)C1)C2 [Example 1, Tricyclo[3.3.1.1^3,7]decane-1-carboxylic acid 3-[4-(3-chlorophenyl)-1-piperazinyl]propyl ester] | 
3 |  | 26 | O=C(OCCN1CCN(c2ncccn2)CC1)C12CC3CC(CC(C3)C1)C2 [Example 2, Tricyclo[3.3.1.1^3,7]decane-1-carboxylic acid 2-[4-(2-pyrimidinyl)-1-piperazinyl]ethyl ester] | Ki ([1]; ^3 H-8-OH DPAT, Ki calculated from IC50 values): 8.5 nM
4 | 100 | 90 | COc1ccccc1N1CCN(CCCOC(=O)C23CC4CC(CC(C4)C2)C3)CC1 [Example 3, Tricyclo[3.3.1.1^3,7]decane-1-carboxylic acid 3-[4-(2-methoxyphenyl)-1-piperazinyl]propyl ester] | 
5 | 72 | 39 | CC12CC3CC(C1)CC(CC(=O)OCCN1CCN(c4ncccn4)CC1)(C3)C2 [Example 4, 3-Methyltricyclo[3.3.1.1^3,7]decane-1-acetic acid 2-[4-(2-pyrimidinyl)-1-piperazinyl]ethyl ester] | 
6 | 100 |  | COc1ccccc1N1CCN(CCOC(=O)c2cccc3c2Cc2ccccc2-3)CC1 [Example 5, 9H-Fluorene-1-carboxylic acid 2-[4-(2-methoxyphenyl)-1-piperazinyl]ethyl ester] | 
7 | 69 | 33 | O=C(OCCCN1CCN(c2ncccn2)CC1)C12CC3CC(CC(C3)C1)C2 [Example 7, Tricyclo[3.3.1.1^3,7]decane-1-carboxylic acid 3-[4-(2-pyrimidinyl)-1-piperazinyl]propyl ester] | 
8 | 53 |  | O=C(OCCN1CCN(c2cccc(Cl)c2)CC1)c1cccc2c1Cc1ccccc1-2 [Example 8, 9H-Fluorene-1-carboxylic acid 2-[4-(3-chlorophenyl)-1-piperazinyl]ethyl ester] | 
9 |  | 90 | N#Cc1ccccc1N1CCN(CCOC(=O)C23CC4CC(CC(C4)C2)C3)CC1 [Example 10, Tricyclo[3.3.1.1^3,7]decane-1-carboxylic acid [2-[4-(2-cyanophenyl)-1-piperazinyl]ethyl]ester] | 
10 |  |  | Cc1nc2sccn2c(=O)c1CCN1CCC(=C(c2ccc(F)cc2)c2ccc(F)cc2)CC1 [Ritanserin] | clinical efficacy as anxiolytic-antidepressant agents [3]: demonstrated clinical efficacy

Row | Structure (SMILES) | inhibition at 1 µM ([1]; ^3 H-8-OH DPAT) [%] | inhibition at 1 µM [2] [%] | further results
11 | O=C(OCCN1CCC(=C(c2ccc(F)cc2)c2ccc(F)cc2)CC1)C12CC3CC(CC(C3)C1)C2 [Example 11, Tricyclo[3.3.1.1^3,7]decane-1-carboxylic acid 2-[4-[bis(4-fluorophenyl)methylene]-1-piperidinyl]ethyl ester] | 95 | 100 | 5HT2 Receptor Binding % Inhibition at 1 μM (5-HT2 receptor): 98%
12 | CC12CC3CC(C1)CC(CC(=O)OCCN1CCC(=C(c4ccc(F)cc4)c4ccc(F)cc4)CC1)(C3)C2 [Example 12, Tricyclo[3.3.1.1^3,7]decane-3-methyl-1-acetic acid 2-[4-[bis(4-fluorophenyl)methylene]-1-piperidinyl]ethyl ester] |  | 36 | 5HT2 Receptor Binding % Inhibition at 1 μM (5-HT2 receptor): 63%
